In publication PMC10573946 (International Journal of Molecular Sciences, 2023):
Converted amounts (≈) assume the structure as drawn. “And” between values parts separate entries of the source, which are not always exact repeats. Equal entries are not always repeated. Where two headings read alike, the source gives them in different places.

Assays:
[1] = cited from earlier work
[2] = Thermodynamic aqueous solubility (shake-flask, HPLC); assay type: physicochemical; details: for solubility at 48 h: 37 °C, thermodynamic from solid, water
Method: The aqueous solubility of RetroABZ was assessed using the shake-flask saturation method, as described in previous studies. […] Subsequently, the solution was filtered through a 0.2 μm filter (Phenex-NY 4mm, Torrance, CA, USA). The aqueous solubility of the compound was then determined using an HPLC method. Experimentally, the compound RetroABZ was analyzed with high-performance liquid chromatography (HPLC PerkinElmer 200, Waltham, Massachusetts). The HPLC analysis was performed using an ultraviolet detector (UV/VIS 200). The analite was monitored at a wavelength of 254 nm. Chromatographic separation was performed using a Phenomenex Luna C18 (4.6 × 150 mm, 5 µm, Torrance, CA, USA). The mobile phase utilized in the study consisted of a mixture of methanol and water in a ratio of 60:40 (v/v). The elution from the stationary phase was conducted at a constant flow rate of 1 mL/min (isocratic mode). Aliquots of 20 µL were injected into the HPLC system and the total run time for each injection was set at 10 min; the analysis was performed for triplicate. […] Chromatographic separation was performed using a Phenomenex Luna C18 (4.6 × 150 mm, 5 µm). The mobile phase utilized was a mixture of methanol and a 0.05 M phosphate buffer (pH 5.7), 70:30 (v:v). The flow rate was kept constant at 1 mL/min. To prepare the saturated solution of the compound (1 mg/mL), it was stirred for 48 h at a constant temperature of 37 ± 2 °C. Subsequently, the solution was filtered through a 0.2 µm filter (Phenex-NY 4 mm). Aliquots of 20 µL were injected into the HPLC system, and the analysis was performed for triplicate.

[3] = tested on: G. lamblia strain WB trophozoites; assay: In vitro giardicidal assay (trophozoite subculture, Probit analysis); assay type: cell-based, Giardia lamblia; details: for IC50: Giardia duodenalis
Method: G. lamblia strain WB was cultured in a TYI-S-33 medium (Manassas, VA, USA) supplemented with 10% calf serum and bovine bile. In vitro susceptibility tests were conducted using 4 × 10^4 trophozoites of G. lamblia. […] Additionally, a control group was incubated solely in a culture medium containing DMSO. Following the incubation period, the trophozoites were washed and subcultured in a fresh medium without drugs for an additional 48 h. Subsequently, the trophozoites count was performed, and the median inhibitory concentration (IC50) was calculated with a Probit analysis. All experimental procedures were replicated in triplicate.

G. lamblia (WB strain) = assay: In vivo antigiardial CD-1 mouse model; set-up: species or system CD-1 mice; details: for ED50: Giardia duodenalis, 48 h
Method: The in vivo antigiardial activity of the compounds was assessed following a previously described phenotypic drug screening method. Female CD-1 mice (16–24 g) were obtained from the animal house facility at Universidad Autónoma Metropolitana, Xochimilco, and were maintained under standard laboratory conditions. The experimental protocols were reviewed and approved by the Animal Care and Use Committee, ensuring compliance with the guidelines for the care and use of laboratory animals. The giardicidal effect of RetroABZ was evaluated on mice infected with trophozoites of the G. lamblia WB strain. Mice were orally treated with a mebendazole solution (10 mg/mouse/day) for 3 consecutive days to ensure their freedom from any potential protozoan infections. One week after treatment, three consecutive fecal examinations were conducted to confirm the absence of protozoan infections before proceeding with experimental infection. Mice (n = 6 per group) were intragastrically infected with 1 × 10^6 trophozoites in 300 µL of a TYI-S-33 medium (Manassas, VA, USA) using a silastic tube ([…]. outside diameter) attached to a 1 mL syringe. Six days after infection, mice were treated intragastrically with 300 µL of RetroABZ dissolved in 1 mL of a 2% DMSO solution in water. […] Five single doses (0.018, 0.037, 0.075, 0.15, and 0.3 mg/kg) of both compounds were evaluated. Forty-eight hours after the treatment (8 days post-infection), the mice were euthanized, and the entire small intestine was removed, opened longitudinally, and placed in 10 mL of a 10% PAF fixer for a minimum of 2 h. Tubes were then vortexed to ensure complete detachment of the trophozoites, and the number of organisms present was calculated for both the treated and control groups.
A data analysis was performed utilizing a Probit analysis. The percentage of surviving trophozoites was calculated by comparing their growth with the control group. To determine the dose required to kill 50% of the trophozoites (ED50), along with the 95% confidence limits, a Probit plot against the logarithm of the drug concentration was generated.

[4] = tested on: Huh-7 (human hepatocellular carcinoma cell line); set-up: method as in PMID 35036753; details: albendazole, reported value; cited from earlier work
[5] = tested on: HaCaT (immortalized human keratinocytes); set-up: method as in PMID 35036753; details: albendazole, reported value; cited from earlier work
[6] = cited from earlier work; remark: listed apart in the source
[7] = In vitro cytotoxic assay (CellTiter 96 AQueous One) in Huh-7; assay type: cell-based, human; details: human, Huh-7 cells, 48 h
Method: (§1) The cytotoxic assay of RetroABZ was carried out in Huh-7 (human hepatocellular carcinoma cell line) cells acquired from ATCC (American Type Culture Collection, Manassas, VA, USA). We also included an immortalized human epidermal keratinocyte line (HaCaT) as a control of non-cancerous cells. The cells were cultured in a DMEM medium (Invitrogen, Thermo Fisher Scientific, Inc., Waltham, MA, USA), supplemented with 10% fetal bovine serum (SFB, Invitrogen) and 2 mM glutamine. All cultures were maintained under standard culture conditions (37 °C and 5% CO2). For the cytotoxic assessment in a 96-well plate, 5000 cells per well were planted. […] The cellular viability was next calculated utilizing the CellTiter 96® AQueous One Solution Cell Proliferation Assay kit (Promega, Madison, WI, USA), following the manufacturer’s instructions. The experiments were carried out in triplicate in separate experiments. The Prism 8.0 statistical tool (Graphpad Software Inc., La Jolla, CA, USA) was used to examine the data, and a regression analysis was used to obtain the IC50.

[8] = tested on: Huh-7 (human hepatocellular carcinoma cell line); assay: as above; assay type: cell-based
Method: as §1

[9] = In vitro cytotoxic assay (CellTiter 96 AQueous One) in HaCaT; assay type: cell-based, human; details: human, HaCaT cells (immortalized keratinocytes)
Method: as §1

[10] = tested on: HaCaT (immortalized human keratinocytes); assay: as above; assay type: cell-based; details: 48 h
Method: as §1

[11] = infected CD-1 mice, single intragastric dose, 48 h after treatment, read-out: ED50

Question: Which results are given for CCCSc1ccc2nc(NC(=O)OC)[nH]c2c1 [Albendazole]?
Answer: documented solubility ([1]; 25 °C): 0.02 µg/mL; reported solubility [1]: 0.2 µg/mL; solubility at 48 h ([2]; 37 ± 2 °C, 48 h, read-out: Solubility in water): 10.6 ± 0.7 µg/mL (≈ 39.8 µM); IC50 ([3]; 48 h, read-out: IC50 G. lamblia, trophozoites, 48 h incubation at 37 °C then 48 h subculture): 0.196 ± 0.011 µM; ED50 (G. lamblia (WB strain)): 0.055 mg/kg and 0.207 µmol/kg; CC50 [4]: 79.7 ± 1 µM; CC50 [5]: 118.2 ± 1 µM; oral bioavailability [6]: 5%; oral bioavailability ([6]; stated in discussion, no reference given): less than 5%

Question: With CCCSc1nc2cc(NC(=O)OC)ccc2[nH]1 [RetroABZ, Methyl (2-(propylthio)-1H-benzo[d]imidazol-5-yl)carbamate] as the molecule, how does the solubility at 48 h ([2]; Solubility in water) read?
Answer: 246 µg/mL (≈ 926 µM)

Question: And the Solubility in water ([2]; 48 h)?
Answer: 245.74 ± 4.07 µg/mL (≈ 926 µM)

Question: What about the CC50 at 48 h [7] of the same molecule?
Answer: > 300 µM

Question: What about the CC50 ([8]; 48 h) of the same molecule?
Answer: 313 ± 22.2 µM

Question: And the “Selectivity Index CC50/IC50 Huh-7” value ([8]; CC50 Huh-7 / IC50 G. lamblia)?
Answer: 3768

Question: And the IC50 ([3]; trophozoites, 48 h incubation at 37 °C then 48 h subculture, read-out: IC50 G. lamblia)?
Answer: 0.083 ± 0.013 µM

Question: And the “in vitro giardicidal activity relative to albendazole” value ([3]; ratio of IC50 values)?
Answer: 2.4 times

Question: And the ED50 (G. lamblia (WB strain); [11])?
Answer: 0.0188 µmol/kg and 0.005 mg/kg

Question: What about the “in vivo giardicidal activity relative to albendazole” value (G. lamblia (WB strain); ratio of ED50 values) of the same molecule?
Answer: 11 fold

Question: And the “in vivo potency relative to metronidazole” value (G. lamblia (WB strain); ratio of ED50 values)?
Answer: 39 fold

Question: And the CC50 at 48 h [9]?
Answer: > 300 µM

Question: And the CC50 [10]?
Answer: 588 ± 18.5 µM

Question: With Cc1ncc([N+](=O)[O-])n1CCO [Metronidazole, reference compound] as the molecule, how does the ED50 (G. lamblia (WB strain); [11]) read?
Answer: 0.194 mg/kg and 1.13 µmol/kg
